Laboratory results as given in US12264139B2, “Aryl sulfonamides as BLT1 antagonists” (Merck Sharp & Dohme LLC, priority 2015, dated 2025).

Biological target: T1, human BLT1 receptor (Homo sapiens, UniProt Q15722)
T1 construct: expressed in transfected cells; host or cells: HEK293
Assay: BLT-1 cAMP Assay
Format: cell-based
Conditions: HEK293 cells recombinantly expressing human BLT1; antagonist activity vs forskolin 4 μM and LTB4 2 nM; cAMP (CisBio kit)

T1 sequence (Q15722 whole entry): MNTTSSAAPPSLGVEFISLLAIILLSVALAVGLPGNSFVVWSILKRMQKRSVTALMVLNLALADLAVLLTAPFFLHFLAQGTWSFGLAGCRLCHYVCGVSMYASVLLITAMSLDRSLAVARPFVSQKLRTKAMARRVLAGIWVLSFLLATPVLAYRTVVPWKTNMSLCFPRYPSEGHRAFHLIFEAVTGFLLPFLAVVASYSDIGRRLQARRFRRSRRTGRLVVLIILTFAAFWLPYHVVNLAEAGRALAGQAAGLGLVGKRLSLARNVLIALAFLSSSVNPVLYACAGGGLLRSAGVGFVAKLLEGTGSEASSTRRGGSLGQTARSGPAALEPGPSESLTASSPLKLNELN

Compound | EC50 [nM]
O=S(=O)(CC(F)(F)F)Nc1ncccc1-c1ccc2c(c1)OC[C@@H](Cc1ccccn1)[C@@H]2O (single isomer, unassigned) [Example 77, 2,2,2-Trifluoro-N-(3-((3R,4S or 3S,4R)-4-hydroxy-3-(pyridin-2-ylmethyl)chroman-7-yl)pyridin-2-yl)ethanesulfonamide] | 118
O=S(=O)(CC(F)(F)F)Nc1ncccc1-c1ccc2c(c1)OC[C@@H](Cc1ccccn1)[C@@H]2O (single isomer, unassigned) [Example 78, 2,2,2-Trifluoro-N-(3-((3S,4R or 3R,4S)-4-hydroxy-3-(pyridin-2-ylmethyl)chroman-7-yl)pyridin-2-yl)ethanesulfonamide] | 1870
O=S(=O)(CC(F)(F)F)Nc1ccccc1-c1ccc2c(c1)OC[C@@H](Cc1ccccn1)[C@@H]2O (single isomer, unassigned) [Example 80, 2,2,2-Trifluoro-N-(2-((3S,4R or 3R,4S)-4-hydroxy-3-(pyridin-2-ylmethyl)chroman-7-yl)phenyl)ethanesulfonamide] | 481
O=S(=O)(Nc1ccccc1-c1ccc2c(c1)OC[C@@H](Cc1ccccn1)[C@@H]2O)C(F)F (single isomer, unassigned) [Example 82, 1,1-Difluoro-N-(2-((3S,4R or 3R,4S)-4-hydroxy-3-(pyridin-2-ylmethyl)chroman-7-yl)phenyl)methanesulfonamide] | 119
O=S(=O)(Nc1ncc(F)cc1-c1ccc2c(c1)OC[C@@H](Cc1ccccn1)[C@@H]2O)C(F)(F)F (single isomer, unassigned) [Example 84, 1,1,1-Trifluoro-N-(5-fluoro-3-((3,4-trans)-4-hydroxy-3-(pyridin-2-ylmethyl)chroman-7-yl)pyridin-2-yl)methanesulfonamide] | 1610
O=S(=O)(Nc1ncccc1-c1ccc2c(c1)OC[C@@H](Cc1ccccn1)[C@@H]2O)C(F)F (single isomer, unassigned) [Example 86, 1,1-Difluoro-N-(3-((3,4-trans)-4-hydroxy-3-(pyridin-2-ylmethyl)chroman-7-yl)pyridin-2-yl)methanesulfonamide] | 156
O=S(=O)(Nc1ncccc1-c1ccc2c(c1)OC[C@@H](Cc1ccccn1)[C@@H]2O)C(F)(F)F (single isomer, unassigned) [Example 87, 1,1,1-Trifluoro-N-(3-((3,4-trans)-4-hydroxy-3-(pyridin-2-ylmethyl)chroman-7-yl)pyridin-2-yl)methanesulfonamide] | 239
O=S(=O)(CC(F)(F)F)Nc1ncc(C(F)(F)F)nc1-c1ccc2c(c1)OC[C@@H](Cc1ccccn1)[C@@H]2O (single isomer, unassigned) [Example 88, 2,2,2-Trifluoro-N-(3-((3,4-trans)-4-hydroxy-3-(pyridin-2-ylmethyl)chroman-7-yl)-5-(trifluoromethyl)pyrazin-2-yl)ethanesulfonamide] | 285
O=S(=O)(Nc1nnc(Cl)cc1-c1ccc2c(c1)OC[C@H](Cc1ccccn1)[C@H]2O)C(F)(F)F (single isomer, unassigned) [Example 89, N-(6-chloro-4-((3R,4S or 3S,4R)-4-hydroxy-3-(pyridin-2-ylmethyl)chroman-7-yl)pyridazin-3-yl)-1,1,1-trifluoromethanesulfonamide] | 965
O=S(=O)(Nc1nnccc1-c1ccc2c(c1)OC[C@@H](Cc1ccccn1)[C@@H]2O)C(F)(F)F (single isomer, unassigned) [Example 90, N-(4-((3,4-trans)-4-hydroxy-3-(pyridin-2-ylmethyl)chroman-7-yl)pyridazin-3-yl)-1,1,1-trifluoromethanesulfonamide] | 3080
O=S(=O)(Nc1nnc(Cl)cc1-c1ccc2c(c1)OC[C@@H](Cc1ccccn1)[C@@H]2O)C(F)(F)F (single isomer, unassigned) [Example 91, N-(6-chloro-4-((3S,4R or 3R,4S)-4-hydroxy-3-(pyridin-2-ylmethyl)chroman-7-yl)pyridazin-3-yl)-1,1,1-trifluoromethanesulfonamide] | 2690
CC(c1csc(-c2ccccc2)n1)[C@@H]1COc2cc(-c3ccccc3NS(=O)(=O)C(F)(F)F)ccc2[C@H]1O (single isomer, unassigned) [Example 92] | 80
CC(c1csc(-c2ccccc2)n1)[C@@H]1COc2cc(-c3ccccc3NS(=O)(=O)C(F)(F)F)ccc2[C@H]1O (single isomer, unassigned) [Example 97] | 268
CC(c1ccccn1)C1COc2cc(-c3cc(F)ccc3NS(=O)(=O)C(F)(F)F)ccc2C1O (single isomer, unassigned) [Example 101, 1,1,1-trifluoro-N-(4-fluoro-2-(4-hydroxy-3-(1-(pyridin-2-yl)ethyl)chroman-7-yl)phenyl) methanesulfonamide] | 678
CC(c1ccccn1)C1COc2cc(-c3cc(F)ccc3NS(=O)(=O)C(F)(F)F)ccc2C1O (single isomer, unassigned) [Example 103, 1,1,1-trifluoro-N-(4-fluoro-2-(4-hydroxy-3-(1-(pyridin-2-yl)ethyl)chroman-7-yl)phenyl) methanesulfonamide] | 1310
O=S(=O)(Nc1ccccc1-c1ccc2c(c1)OC[C@@H](Cc1ccccn1)[C@@H]2O)C(F)(F)F [Example 55, 1,1,1-trifluoro-N-{2-[(3R,4S)-4-hydroxy-3-(pyridin-2-ylmethyl)-3,4-dihydro-2H-chromen-7-yl]phenyl}-methanesulfonamide] | 2020

Second part, the compound after the results:

EC50 [nM] | Compound
35 | O=S(=O)(CC(F)(F)F)Nc1ccccc1-c1ccc2c(c1)OC[C@@H](Cc1ccccn1)[C@@H]2O (single isomer, unassigned) [Example 79, 2,2,2-Trifluoro-N-(2-((3R,4S or 3S,4R)-4-hydroxy-3-(pyridin-2-ylmethyl)chroman-7-yl)phenyl)ethanesulfonamide]
15 | O=S(=O)(Nc1ccccc1-c1ccc2c(c1)OC[C@@H](Cc1ccccn1)[C@@H]2O)C(F)F (single isomer, unassigned) [Example 81, 1,1-Difluoro-N-(2-((3R,4S or 3S,4R)-4-hydroxy-3-(pyridin-2-ylmethyl)chroman-7-yl)phenyl)methanesulfonamide]
14 | O=S(=O)(Nc1ccc(F)cc1-c1ccc2c(c1)OC[C@@H](Cc1ccccn1)[C@@H]2O)C(F)(F)F (single isomer, unassigned) [Example 83, 1,1,1-Trifluoro-N-(4-fluoro-2-((3,4-trans)-4-hydroxy-3-(pyridin-2-ylmethyl)chroman-7-yl)phenyl)methanesulfonamide]
63 | O=S(=O)(CC(F)(F)F)Nc1ncc(F)cc1-c1ccc2c(c1)OC[C@@H](Cc1ccccn1)[C@@H]2O (single isomer, unassigned) [Example 85]
72 | CC(c1ccccn1)C1COc2cc(-c3cc(F)ccc3NS(=O)(=O)C(F)(F)F)ccc2C1O (single isomer, unassigned) [Example 100, 1,1,1-trifluoro-N-(4-fluoro-2-(4-hydroxy-3-(1-(pyridin-2-yl)ethyl)chroman-7-yl)phenyl) methanesulfonamide]
78 | CC(c1ccccn1)C1COc2cc(-c3cc(F)ccc3NS(=O)(=O)C(F)(F)F)ccc2C1O (single isomer, unassigned) [Example 102, 1,1,1-trifluoro-N-(4-fluoro-2-(4-hydroxy-3-(1-(pyridin-2-yl)ethyl)chroman-7-yl)phenyl) methanesulfonamide]
55 | O=S(=O)(Nc1ccccc1-c1ccc2c(c1)OC[C@H](Cc1ccccn1)[C@H]2O)C(F)(F)F [Example 54, 1,1,1-trifluoro-N-{2-[(3S,4R)-4-hydroxy-3-(pyridin-2-ylmethyl)-3,4-dihydro-2H-chromen-7-yl]phenyl}-methanesulfonamide]
1 | CC(c1ccccn1)C1COc2cc(-c3cc(F)ccc3NS(=O)(=O)C(F)(F)F)ccc2C1O (stereo not drawn) [Example 99, 1,1,1-trifluoro-N-(4-fluoro-2-(4-hydroxy-3-(1-(pyridin-2-yl)ethyl)chroman-7-yl)phenyl) methanesulfonamide]
